# Data taken from publication PMC8429728, “TNK1 is a ubiquitin-binding and 14-3-3-regulated kinase that can be targeted to block tumor growth” (Nature Communications, 2021).
# Read-outs that look alike come from different tables or passages of the source.
# Tests used:
# Assay in all cases: biochemical
# Set-up in all cases: Reaction Biology 371-kinase panel at Km ATP, per cent enzyme activity relative to DMSO, single dose in duplicate
# Conditions in all cases: duplicate measurements, Km ATP
# MYLK3 = MYLK3 (Homo sapiens, UniProt Q32MK0)
# How it was run: (§1)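 Activity of each kinase, normalised to DMSO-treated controls, served as the read-out. The inhibitor was tested at 300 nM against 371 kinases in vitro. Curves fitted by variable-slope sigmoidal dose-response, constrained to a bottom of 0, gave IC50.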
# STK22D/TSSK1 = biological target: T1, STK22D/TSSK1 (Homo sapiens, UniProt Q9BXA7)
# T1 construct: gene TSSK1B
# How it was run: as §1
# MARK2/PAR-1Ba = MARK2/PAR-1Ba (Homo sapiens, UniProt Q7KZI7)
# How it was run: as §1
# TAK1 = biological target: T2, TAK1 (Homo sapiens, UniProt O43318)
# T2 construct: gene MAP3K7
# How it was run: as §1
# CAMKK1 = CAMKK1 (Homo sapiens, UniProt Q8N5S9)
# How it was run: as §1
# CAMK1g = CAMK1g (Homo sapiens, UniProt Q96NX5)
# How it was run: as §1
# WNK1 = WNK1 (Homo sapiens, UniProt Q9H4A3)
# How it was run: as §1
# DYRK3 = DYRK3 (Homo sapiens, UniProt O43781)
# How it was run: as §1
# ERBB2/HER2 = ERBB2/HER2 (Homo sapiens, UniProt P04626)
# How it was run: as §1
# PLK1 = PLK1 (Homo sapiens, UniProt P53350)
# How it was run: as §1
# ALK3/BMPR1A = ALK3/BMPR1A (Homo sapiens, UniProt P36894)
# How it was run: as §1
# HCK = HCK (Homo sapiens, UniProt P08631)
# How it was run: as §1
# PKD2/PRKD2 = PKD2/PRKD2 (Homo sapiens, UniProt Q9BZL6)
# How it was run: as §1
# CK1g1 = biological target: T3, CK1g1 (Homo sapiens, UniProt Q9HCP0)
# T3 construct: gene CSNK1G1
# How it was run: as §1
# AURORA C = biological target: T4, AURORA C (Homo sapiens, UniProt Q9UQB9)
# T4 construct: gene AURKC
# How it was run: as §1
# FYN = FYN (Homo sapiens, UniProt P06241)
# How it was run: as §1
# AKT2 = AKT2 (Homo sapiens, UniProt P31751)
# How it was run: as §1
# GRK4 = GRK4 (Homo sapiens, UniProt P32298)
# How it was run: as §1
# MAPKAPK2 = MAPKAPK2 (Homo sapiens, UniProt P49137)
# How it was run: as §1
# JNK3 = biological target: T5, JNK3 (Homo sapiens, UniProt P53779)
# T5 construct: gene MAPK10
# How it was run: as §1
# [1] = read-out: % Enzyme Activity (relative to DMSO controls) / TP-0005801 (0.3µM) / Data 1
# [2] = read-out: % Enzyme Activity (relative to DMSO controls) / TP-0005801 (0.3µM) / Data 2
# Chain of ALK3/BMPR1A (P36894 whole entry): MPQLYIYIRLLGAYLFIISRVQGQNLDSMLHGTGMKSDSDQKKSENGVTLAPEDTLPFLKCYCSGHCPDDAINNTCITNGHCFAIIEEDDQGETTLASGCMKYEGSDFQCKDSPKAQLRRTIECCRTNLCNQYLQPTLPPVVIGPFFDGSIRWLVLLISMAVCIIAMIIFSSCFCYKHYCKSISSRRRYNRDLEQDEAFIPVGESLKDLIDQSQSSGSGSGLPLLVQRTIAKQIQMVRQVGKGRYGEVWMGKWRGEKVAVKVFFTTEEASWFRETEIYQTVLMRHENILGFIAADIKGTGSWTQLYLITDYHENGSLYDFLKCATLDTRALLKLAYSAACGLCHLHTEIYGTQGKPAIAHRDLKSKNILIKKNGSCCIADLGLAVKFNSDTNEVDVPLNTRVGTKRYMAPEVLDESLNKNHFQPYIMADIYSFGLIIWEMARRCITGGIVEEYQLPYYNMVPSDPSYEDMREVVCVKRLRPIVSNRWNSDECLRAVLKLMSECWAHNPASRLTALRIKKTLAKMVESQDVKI
# Chain of CAMK1g (Q96NX5 whole entry): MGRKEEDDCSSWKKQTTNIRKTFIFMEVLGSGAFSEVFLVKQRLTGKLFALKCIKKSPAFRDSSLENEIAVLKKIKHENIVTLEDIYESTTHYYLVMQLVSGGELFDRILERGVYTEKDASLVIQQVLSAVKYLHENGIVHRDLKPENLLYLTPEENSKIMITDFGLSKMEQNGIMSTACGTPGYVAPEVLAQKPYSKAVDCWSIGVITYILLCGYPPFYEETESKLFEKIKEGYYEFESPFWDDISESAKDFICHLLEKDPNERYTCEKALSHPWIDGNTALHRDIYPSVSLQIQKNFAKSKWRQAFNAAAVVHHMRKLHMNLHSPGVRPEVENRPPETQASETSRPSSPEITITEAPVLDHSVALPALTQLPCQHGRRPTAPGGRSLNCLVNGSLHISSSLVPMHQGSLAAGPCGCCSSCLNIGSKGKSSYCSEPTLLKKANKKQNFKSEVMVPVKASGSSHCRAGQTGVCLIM
# Chain of ERBB2/HER2 (P04626 whole entry): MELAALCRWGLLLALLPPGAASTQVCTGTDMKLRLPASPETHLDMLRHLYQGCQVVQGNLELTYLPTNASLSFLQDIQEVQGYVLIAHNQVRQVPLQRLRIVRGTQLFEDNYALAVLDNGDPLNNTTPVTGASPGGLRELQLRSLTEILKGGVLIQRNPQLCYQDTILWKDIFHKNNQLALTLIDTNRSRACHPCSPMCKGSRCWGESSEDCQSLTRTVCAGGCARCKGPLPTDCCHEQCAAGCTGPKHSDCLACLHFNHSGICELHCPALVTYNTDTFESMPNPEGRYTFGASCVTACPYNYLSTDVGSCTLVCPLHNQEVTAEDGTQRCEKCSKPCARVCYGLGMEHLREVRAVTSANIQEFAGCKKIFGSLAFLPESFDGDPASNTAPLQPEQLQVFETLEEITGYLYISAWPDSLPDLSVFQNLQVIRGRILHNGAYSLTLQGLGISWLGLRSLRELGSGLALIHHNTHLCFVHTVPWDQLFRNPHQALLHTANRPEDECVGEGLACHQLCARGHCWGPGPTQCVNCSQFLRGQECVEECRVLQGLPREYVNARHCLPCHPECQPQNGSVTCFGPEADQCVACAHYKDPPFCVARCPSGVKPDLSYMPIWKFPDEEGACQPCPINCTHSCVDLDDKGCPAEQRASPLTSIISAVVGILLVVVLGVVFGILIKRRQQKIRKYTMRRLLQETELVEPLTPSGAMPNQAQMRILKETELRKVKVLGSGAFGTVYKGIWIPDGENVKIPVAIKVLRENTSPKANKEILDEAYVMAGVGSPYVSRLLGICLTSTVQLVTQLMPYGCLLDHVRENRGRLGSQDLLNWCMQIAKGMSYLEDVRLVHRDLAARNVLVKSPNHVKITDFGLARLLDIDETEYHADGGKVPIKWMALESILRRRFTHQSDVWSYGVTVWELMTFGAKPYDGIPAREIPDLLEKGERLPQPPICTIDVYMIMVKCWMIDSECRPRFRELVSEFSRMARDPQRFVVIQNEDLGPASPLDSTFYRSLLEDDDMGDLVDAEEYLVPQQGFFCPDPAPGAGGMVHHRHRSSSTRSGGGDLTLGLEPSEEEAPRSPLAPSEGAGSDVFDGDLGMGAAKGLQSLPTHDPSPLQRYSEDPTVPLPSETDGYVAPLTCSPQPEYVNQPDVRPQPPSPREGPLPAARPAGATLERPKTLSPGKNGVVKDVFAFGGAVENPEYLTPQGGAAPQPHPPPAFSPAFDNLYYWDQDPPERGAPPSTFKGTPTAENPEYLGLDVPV
# Chain of DYRK3 (O43781 whole entry): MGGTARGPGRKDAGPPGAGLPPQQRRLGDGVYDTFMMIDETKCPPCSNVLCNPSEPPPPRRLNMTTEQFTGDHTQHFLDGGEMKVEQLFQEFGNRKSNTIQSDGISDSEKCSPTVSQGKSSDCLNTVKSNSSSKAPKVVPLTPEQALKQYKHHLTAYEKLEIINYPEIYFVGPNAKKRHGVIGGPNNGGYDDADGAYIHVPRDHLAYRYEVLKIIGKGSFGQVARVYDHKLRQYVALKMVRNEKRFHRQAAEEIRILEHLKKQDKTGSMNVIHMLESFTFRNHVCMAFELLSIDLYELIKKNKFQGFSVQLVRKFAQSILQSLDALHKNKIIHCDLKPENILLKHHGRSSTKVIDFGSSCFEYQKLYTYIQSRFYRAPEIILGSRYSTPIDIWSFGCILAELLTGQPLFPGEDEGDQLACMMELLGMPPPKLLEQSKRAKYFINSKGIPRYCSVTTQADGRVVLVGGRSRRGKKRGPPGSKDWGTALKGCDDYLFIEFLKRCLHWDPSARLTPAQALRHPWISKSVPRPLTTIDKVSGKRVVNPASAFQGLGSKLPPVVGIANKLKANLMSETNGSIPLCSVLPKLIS
# T2 sequence (O43318 whole entry): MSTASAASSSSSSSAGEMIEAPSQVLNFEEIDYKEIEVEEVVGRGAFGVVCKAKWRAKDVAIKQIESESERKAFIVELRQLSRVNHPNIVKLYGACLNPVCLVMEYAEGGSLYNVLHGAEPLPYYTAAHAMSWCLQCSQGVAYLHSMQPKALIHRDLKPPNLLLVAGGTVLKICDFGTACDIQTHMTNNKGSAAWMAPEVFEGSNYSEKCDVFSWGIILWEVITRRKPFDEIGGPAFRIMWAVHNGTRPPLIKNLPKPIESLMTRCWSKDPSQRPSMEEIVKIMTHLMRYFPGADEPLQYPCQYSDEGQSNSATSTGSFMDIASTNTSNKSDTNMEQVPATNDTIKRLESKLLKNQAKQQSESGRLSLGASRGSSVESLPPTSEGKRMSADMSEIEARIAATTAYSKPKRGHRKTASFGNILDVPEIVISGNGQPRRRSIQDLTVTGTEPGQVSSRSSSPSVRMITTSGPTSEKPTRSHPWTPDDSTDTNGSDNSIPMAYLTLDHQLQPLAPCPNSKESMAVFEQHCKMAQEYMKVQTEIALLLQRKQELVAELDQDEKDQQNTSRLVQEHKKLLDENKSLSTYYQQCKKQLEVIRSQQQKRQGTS
# Chain of MAPKAPK2 (P49137 whole entry): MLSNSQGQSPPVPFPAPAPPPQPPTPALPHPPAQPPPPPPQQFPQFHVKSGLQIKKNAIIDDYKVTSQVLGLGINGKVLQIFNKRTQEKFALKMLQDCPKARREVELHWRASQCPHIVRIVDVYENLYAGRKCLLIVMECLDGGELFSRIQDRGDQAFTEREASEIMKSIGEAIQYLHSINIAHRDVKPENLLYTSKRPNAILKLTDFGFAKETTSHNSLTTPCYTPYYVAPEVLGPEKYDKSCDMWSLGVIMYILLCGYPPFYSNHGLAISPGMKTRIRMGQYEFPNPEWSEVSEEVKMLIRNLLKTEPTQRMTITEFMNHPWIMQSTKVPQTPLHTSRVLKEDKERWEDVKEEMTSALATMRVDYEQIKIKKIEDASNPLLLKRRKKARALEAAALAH
# Chain of CAMKK1 (Q8N5S9 whole entry): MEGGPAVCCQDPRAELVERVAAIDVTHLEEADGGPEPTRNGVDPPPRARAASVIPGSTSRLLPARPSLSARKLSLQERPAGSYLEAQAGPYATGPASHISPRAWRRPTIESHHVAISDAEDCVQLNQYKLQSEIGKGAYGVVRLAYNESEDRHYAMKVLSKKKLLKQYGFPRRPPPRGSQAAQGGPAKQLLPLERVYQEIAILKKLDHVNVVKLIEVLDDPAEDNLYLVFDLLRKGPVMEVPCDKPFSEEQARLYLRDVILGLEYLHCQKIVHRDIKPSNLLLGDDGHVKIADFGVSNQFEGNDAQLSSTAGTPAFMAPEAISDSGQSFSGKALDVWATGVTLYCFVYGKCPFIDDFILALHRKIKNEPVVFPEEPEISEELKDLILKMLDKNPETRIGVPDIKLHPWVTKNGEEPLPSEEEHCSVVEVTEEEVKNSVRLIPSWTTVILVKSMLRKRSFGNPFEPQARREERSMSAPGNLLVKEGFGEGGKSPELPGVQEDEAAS
# Chain of HCK (P08631 whole entry): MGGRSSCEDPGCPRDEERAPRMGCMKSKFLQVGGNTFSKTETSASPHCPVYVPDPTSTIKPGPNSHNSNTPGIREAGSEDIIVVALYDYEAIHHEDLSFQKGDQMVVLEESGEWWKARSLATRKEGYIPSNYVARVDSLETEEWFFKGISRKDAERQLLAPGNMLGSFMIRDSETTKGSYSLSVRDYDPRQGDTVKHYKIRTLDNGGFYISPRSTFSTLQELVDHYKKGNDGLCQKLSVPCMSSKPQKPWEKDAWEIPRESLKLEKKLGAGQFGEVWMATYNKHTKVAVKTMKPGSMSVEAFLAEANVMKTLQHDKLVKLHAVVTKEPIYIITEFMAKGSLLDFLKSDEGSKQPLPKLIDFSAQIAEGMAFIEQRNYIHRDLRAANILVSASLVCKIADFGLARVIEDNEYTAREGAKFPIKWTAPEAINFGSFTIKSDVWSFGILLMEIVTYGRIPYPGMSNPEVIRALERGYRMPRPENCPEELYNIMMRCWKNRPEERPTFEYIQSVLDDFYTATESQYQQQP
compound,measurement,setting,value
COc1cc(N2CCN(C)CC2)c(C)cc1Nc1ncc(Br)c(Nc2cccnc2N(C)C)n1 [TP-5801],remaining activity at 0.3 µM,MYLK3; [1],110%
same,remaining activity at 0.3 µM,MYLK3; [2],109%
same,remaining activity at 0.3 µM,STK22D/TSSK1; [1],10.4%
same,remaining activity at 0.3 µM,STK22D/TSSK1; [2],8.14%
same,remaining activity at 0.3 µM,MARK2/PAR-1Ba; [1],93.2%
same,remaining activity at 0.3 µM,MARK2/PAR-1Ba; [2],92.1%
same,remaining activity at 0.3 µM,TAK1; [1],103%
same,remaining activity at 0.3 µM,TAK1; [2],102%
same,remaining activity at 0.3 µM,CAMKK1; [1],77.1%
same,remaining activity at 0.3 µM,CAMKK1; [2],74%
same,remaining activity at 0.3 µM,CAMK1g; [1],99%
same,remaining activity at 0.3 µM,CAMK1g; [2],97.4%
same,remaining activity at 0.3 µM,WNK1; [1],108%
same,remaining activity at 0.3 µM,WNK1; [2],104%
same,remaining activity at 0.3 µM,DYRK3; [1],126%
same,remaining activity at 0.3 µM,DYRK3; [2],124%
same,remaining activity at 0.3 µM,ERBB2/HER2; [1],82.3%
same,remaining activity at 0.3 µM,ERBB2/HER2; [2],81.7%
same,remaining activity at 0.3 µM,PLK1; [1],88.7%
same,remaining activity at 0.3 µM,PLK1; [2],87.8%
same,remaining activity at 0.3 µM,ALK3/BMPR1A; [1],105%
same,remaining activity at 0.3 µM,ALK3/BMPR1A; [2],100%
same,remaining activity at 0.3 µM,HCK; [1],105%
same,remaining activity at 0.3 µM,HCK; [2],102%
same,remaining activity at 0.3 µM,PKD2/PRKD2; [1],66.5%
same,remaining activity at 0.3 µM,PKD2/PRKD2; [2],64.3%
same,remaining activity at 0.3 µM,CK1g1; [1],88.5%
same,remaining activity at 0.3 µM,CK1g1; [2],87.8%
same,remaining activity at 0.3 µM,AURORA C; [1],97%
same,remaining activity at 0.3 µM,AURORA C; [2],92.9%
same,remaining activity at 0.3 µM,FYN; [1],108%
same,remaining activity at 0.3 µM,FYN; [2],105%
same,remaining activity at 0.3 µM,AKT2; [1],100%
same,remaining activity at 0.3 µM,AKT2; [2],99.9%
same,remaining activity at 0.3 µM,GRK4; [1],109%
same,remaining activity at 0.3 µM,GRK4; [2],108%
same,remaining activity at 0.3 µM,MAPKAPK2; [1],99%
same,remaining activity at 0.3 µM,MAPKAPK2; [2],96.4%
same,remaining activity at 0.3 µM,JNK3; [1],81%
same,remaining activity at 0.3 µM,JNK3; [2],80.7%
